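Interpolation was linear, between the two tested concentrations surrounding the appropriate level; five concentrations were tested over 48 hours in 96-well plates. TGI is the concentration that stops growth completely.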
Columns and labels:
Test in all cases: NCI-60 cell line screen, 48 h
[1] = system: U251 CNS
[2] = system: SF-539 CNS
[3] = system: RPMI-8226 leukemia
[4] = system: HS 578T breast
[5] = system: HOP-92 NSCLC
[6] = system: NCI/ADR-RES ovarian
[7] = system: SW-620 colon
[8] = system: HOP-62 NSCLC
[9] = system: OVCAR-3 ovarian
[10] = system: HL-60(TB) leukemia
[11] = system: OVCAR-8 ovarian
[12] = system: MALME-3M melanoma
[13] = system: HCT-15 colon
[14] = system: MDA-N
[15] = system: CAKI-1 renal
[16] = system: SK-MEL-28 melanoma
[17] = system: ACHN renal
[18] = system: SR leukemia

SMILES: COc1ccc(C[C@@H](CO)NC2=C(C#N)CCC2)cc1
- TGI [1]: > 100 µM
- TGI [2]: > 100 µM
- TGI [3]: 59.6 µM
- TGI [4]: 93 µM
- TGI [5]: > 100 µM
- TGI [6]: > 100 µM
- TGI [7]: > 100 µM
- TGI [8]: > 100 µM
- TGI [9]: > 100 µM
- TGI [10]: 27.8 µM
- TGI [11]: > 100 µM
- TGI [12]: > 100 µM
- TGI [13]: > 100 µM
- TGI [14]: > 100 µM
- TGI [15]: > 100 µM
- TGI [16]: > 100 µM
- TGI [17]: > 100 µM

SMILES: COc1ccc(/C=C2\CCC(C)C3C2=NN(c2ccccc2)C3c2ccc(OC)c(OC)c2)cc1OC (stereo not given)
- TGI [1]: > 100 µM
- TGI [2]: 7.49 µM
- TGI [3]: 4.3 µM
- TGI [4]: > 100 µM
- TGI [6]: 18.3 µM
- TGI [7]: > 100 µM
- TGI [9]: > 100 µM
- TGI [10]: 7.07 µM
- TGI [11]: 25.3 µM
- TGI [12]: 16.7 µM
- TGI [13]: 9.92 µM
- TGI [14]: 29.2 µM
- TGI [15]: 15.6 µM
- TGI [16]: 31.6 µM
- TGI [17]: 14.6 µM

SMILES: Oc1c2cc(Cl)cc1COCc1cc(Cl)cc(c1O)COCc1cc(Cl)cc(c1O)COC2
- TGI [1]: > 100 µM
- TGI [3]: > 100 µM
- TGI [5]: 92.2 µM
- TGI [6]: > 100 µM
- TGI [7]: > 100 µM
- TGI [8]: > 100 µM
- TGI [18]: > 100 µM
- TGI [9]: > 100 µM
- TGI [10]: 8.43 µM
- TGI [11]: 32.9 µM
- TGI [13]: > 100 µM
- TGI [16]: > 100 µM
- TGI [17]: > 100 µM

SMILES: CO/C(N)=C(\C#N)N=Cc1ccco1
- TGI [1]: > 100 µM
- TGI [3]: > 100 µM
- TGI [4]: > 100 µM
- TGI [5]: > 100 µM
- TGI [6]: > 100 µM
- TGI [7]: > 100 µM
- TGI [8]: > 100 µM
- TGI [9]: > 100 µM
- TGI [10]: > 100 µM
- TGI [11]: > 100 µM
- TGI [12]: > 100 µM
- TGI [13]: > 100 µM
- TGI [14]: > 100 µM
- TGI [15]: > 100 µM
- TGI [16]: > 100 µM
- TGI [17]: > 100 µM

SMILES: O=C1N[C@H]2c3c(Cl)sc(Cl)c3[C@@H](O)[C@H]2O1
- TGI [1]: > 100 µM
- TGI [2]: > 100 µM
- TGI [3]: > 100 µM
- TGI [6]: > 100 µM
- TGI [7]: > 100 µM
- TGI [8]: > 100 µM
- TGI [18]: > 100 µM
- TGI [9]: > 100 µM
- TGI [10]: > 100 µM
- TGI [11]: > 100 µM
- TGI [12]: > 100 µM
- TGI [13]: > 100 µM
- TGI [14]: > 100 µM
- TGI [15]: > 100 µM
- TGI [16]: > 100 µM
- TGI [17]: > 100 µM

SMILES: O=P1(O)c2ccccc2CCc2ccccc21
- TGI [2]: > 100 µM
- TGI [3]: > 100 µM
- TGI [4]: > 100 µM
- TGI [5]: > 100 µM
- TGI [7]: > 100 µM
- TGI [8]: > 100 µM
- TGI [9]: > 100 µM
- TGI [11]: > 100 µM
- TGI [13]: > 100 µM
- TGI [14]: > 100 µM
- TGI [15]: > 100 µM
- TGI [16]: > 100 µM

SMILES: CC1OC(OC2C(OC(=O)[C@]34CCC(C)(C)CC3C3=CCC5[C@@]6(C)C[C@H](O)[C@H](OC7OC(CO)C(O)C(O)C7N)[C@@](C)(C(=O)O)C6CC[C@@]5(C)C3(C)CC4)OCC(O)C2O)C(O)C(O)C1OC1OCC(O)C(O)C1O (stereo not given in full)
- TGI [1]: > 100 µM
- TGI [2]: > 100 µM
- TGI [3]: > 100 µM
- TGI [5]: > 100 µM
- TGI [7]: > 100 µM
- TGI [8]: > 100 µM
- TGI [9]: > 100 µM
- TGI [10]: > 100 µM
- TGI [11]: > 100 µM
- TGI [12]: > 100 µM
- TGI [13]: > 100 µM
- TGI [15]: > 100 µM
- TGI [16]: > 100 µM
- TGI [17]: > 100 µM

SMILES: COc1ccc2c(c1)C(=O)Cc1ccccc1CC2
- TGI [1]: > 100 µM
- TGI [2]: > 100 µM
- TGI [3]: > 100 µM
- TGI [5]: > 100 µM
- TGI [7]: > 100 µM
- TGI [18]: > 100 µM
- TGI [9]: > 100 µM
- TGI [10]: > 100 µM
- TGI [11]: > 100 µM
- TGI [12]: > 100 µM
- TGI [13]: > 100 µM
- TGI [15]: > 100 µM
- TGI [16]: > 100 µM
- TGI [17]: > 100 µM

SMILES: CC(=N)OC1CC2CCC1(C)C2(C)C (stereo not given)
- TGI [1]: > 100 µM
- TGI [2]: > 100 µM
- TGI [3]: > 100 µM
- TGI [4]: > 100 µM
- TGI [5]: > 100 µM
- TGI [7]: > 100 µM
- TGI [8]: > 100 µM
- TGI [18]: > 100 µM
- TGI [9]: > 100 µM
- TGI [10]: > 100 µM
- TGI [11]: > 100 µM
- TGI [12]: > 100 µM
- TGI [13]: > 100 µM
- TGI [14]: > 100 µM
- TGI [15]: > 100 µM
- TGI [16]: > 100 µM
- TGI [17]: > 100 µM

SMILES: O=C1c2ccccc2C(=O)c2c1cc(S(=O)(=O)O)c(O)c2O
- TGI [1]: > 100 µM
- TGI [2]: > 100 µM
- TGI [3]: > 100 µM
- TGI [5]: > 100 µM
- TGI [7]: > 100 µM
- TGI [8]: > 100 µM
- TGI [18]: > 100 µM
- TGI [9]: > 100 µM
- TGI [11]: > 100 µM
- TGI [13]: > 100 µM
- TGI [15]: > 100 µM
- TGI [16]: > 100 µM
- TGI [17]: > 100 µM

SMILES: O=c1oc2ccccc2cc1-c1csc(Nc2ccc(F)cc2)n1
- TGI [1]: 9.55 µM
- TGI [2]: 3.5 µM
- TGI [3]: 4.44 µM
- TGI [4]: 4.61 µM
- TGI [5]: 24.4 µM
- TGI [6]: 13 µM
- TGI [7]: 15.3 µM
- TGI [8]: 8.22 µM
- TGI [9]: 19.6 µM
- TGI [10]: 35.3 µM
- TGI [11]: 23.5 µM
- TGI [13]: 11.2 µM
- TGI [14]: 16.5 µM
- TGI [15]: 10.6 µM
- TGI [16]: 6.6 µM
- TGI [17]: 26.3 µM

SMILES: O=C(O)CCCn1nnc2c(=O)[nH][nH]c(=O)c21
- TGI [1]: > 100 µM
- TGI [3]: > 100 µM
- TGI [5]: > 100 µM
- TGI [6]: > 100 µM
- TGI [8]: > 100 µM
- TGI [18]: > 100 µM
- TGI [9]: > 100 µM
- TGI [10]: > 100 µM
- TGI [11]: > 100 µM
- TGI [12]: > 100 µM
- TGI [13]: > 100 µM
- TGI [14]: > 100 µM
- TGI [15]: > 100 µM
- TGI [16]: > 100 µM
- TGI [17]: > 100 µM

SMILES: O=c1c2ccccc2[nH]c2c(Cl)cc(Cl)c(NC3CCCCC3)c12
- TGI [1]: 36.9 µM
- TGI [2]: 57.8 µM
- TGI [3]: 85 µM
- TGI [6]: 44 µM
- TGI [7]: 49 µM
- TGI [8]: 60.8 µM
- TGI [18]: > 100 µM
- TGI [9]: 28 µM
- TGI [10]: 43.9 µM
- TGI [11]: 44.8 µM
- TGI [13]: > 100 µM
- TGI [14]: 79.1 µM
- TGI [15]: 83.2 µM
- TGI [16]: > 100 µM
- TGI [17]: 37.7 µM

SMILES: Cc1c(C)c(C)n(C2OC(CO)C(O)C(O)C2O)c(=S)c1C#N (stereo not given)
- TGI [1]: > 100 µM
- TGI [2]: > 100 µM
- TGI [5]: > 100 µM
- TGI [6]: > 100 µM
- TGI [7]: > 100 µM
- TGI [8]: > 100 µM
- TGI [18]: > 100 µM
- TGI [9]: > 100 µM
- TGI [10]: > 100 µM
- TGI [11]: > 100 µM
- TGI [12]: > 100 µM
- TGI [13]: > 100 µM
- TGI [14]: > 100 µM
- TGI [16]: > 100 µM
- TGI [17]: > 100 µM

SMILES: O=C(NC12CC3CC(CC(F)(C3)C1)C2)c1ccccc1
- TGI [1]: > 100 µM
- TGI [2]: > 100 µM
- TGI [3]: > 100 µM
- TGI [5]: > 100 µM
- TGI [7]: > 100 µM
- TGI [8]: > 100 µM
- TGI [9]: > 100 µM
- TGI [10]: > 100 µM
- TGI [11]: > 100 µM
- TGI [12]: > 100 µM
- TGI [16]: > 100 µM
- TGI [17]: > 100 µM

Source: PubChem BioAssay (NCI)
